US20260356834A1, “ANTICONVULSIVE COMPOUNDS AND USES THEREOF” (Jazz Pharmaceuticals Research UK Limite, priority 2023, published 2026)
Marks after values point to notes of the source that are not given here.

Tested on: DBA/2 mice
Experiment: mouse audiogenic seizure test
Type: in vivo
Conditions: for Clonic convulsion - presence, Total / Tonic convulsion - presence, Total / Wild running - presence, Total: number of mice, n = 10
Text: The Audiogenic Seizure Test, which detects anticonvulsant activity, follows that described by Durmüller et al., 1993. Mice of the DBA/2 strain undergo an age-dependent sequence of convulsions (wild-running, clonic convulsion, tonic convulsion and respiratory arrest) within 60 seconds of exposure to a loud sound of 110-120 dB. The type of convulsions are consistent with aspects of generalised seizure in humans.
Male DBA/2 mice (3-4 weeks old) were supplied by Janvier Labs (53940 Le Genest-Saint-Isle, France); weight range 6-13 g at the beginning of the experiment. Animals were acclimatized to the Test Facility for 1 day after delivery and randomly housed in groups of 5 in macrolon cages on wood litter with free access to food and water.
The animal house was maintained under artificial lighting (12 hours) between 7:00 and 19:00 in a controlled ambient temperature of 22±2 °C and relative humidity between 30-70%.
Mice were individually transferred (at 3-5 minutes intervals) from the preparation room into an adjacent experimental room and body temperature was measured using a rectal thermometer (Digital Laboratory Thermometer: Model BAT-12). Immediately after, they were placed in a Plexiglas jar (Diameter=40 cm; Height=35 cm) mounted with an electric bell (110-120 dB, supplier Leroy Merlin, France). Upon activating the bell, the occurrences and latencies to wild running fits, clonic and tonic seizures were measured. Deaths were also recorded. The bell was activated until a tonic seizure occurred, or for a maximum of 60 seconds.
The experiment included groups of 10 mice per group. Experimenters were only partially blinded to treatment group as pre-treatment times were different.
The test substance was evaluated at various doses, administered i.p. (10 ml/kg) 15 or 30 minutes before the test, and compared with a vehicle control group.
Due to the number of animals tested, the experiment was divided in 2 sub-experiments on 2 separate days (7 days apart) with 5 mice per group in each sub-experiment.
Data were tested for normality using d'Agostino-Pearson Test and found to not follow a normal distribution. Statistical outliers were not identified or removed because no behavioural outliers were identified. Quantitative data (latencies) with the test substance were analyzed by comparing treated groups with vehicle control using Kruskal-Wallis test followed by Dunn's multiple comparisons test. Quantitative data with the reference substance were analyzed using Mann-Whitney U test. Quantal data (frequencies) were analyzed by comparing treated groups with vehicle control using Fisher's Exact Probability test.

Structure (SMILES): CCCc1cc(O)c(-c2c(C)ccn3ccnc23)c(O)c1 [Compound 2, 2-(7-Methylimidazo[1,2-a]pyridin-8-yl)-5-propylbenzene-1,3-diol]
- latency to tonic convulsions (significance in words) (3 mg/kg i.p. vs vehicle): no significant differences
- Clonic convulsion - latency, Change from vehicle (3 mg/kg i.p., 30 min): +10%
- Clonic convulsion - presence, Change from vehicle (3 mg/kg i.p., 30 min): +25%
- Tonic convulsion - latency, Change from vehicle (3 mg/kg i.p., 30 min): +23%
- Tonic convulsion - presence, Change from vehicle (3 mg/kg i.p., 30 min): +14%
- Wild running - latency, Change from vehicle (3 mg/kg i.p., 30 min): +16%
- Wild running - presence, Change from vehicle (3 mg/kg i.p., 30 min): +11%
- Clonic convulsion - presence, Total (3 mg/kg i.p., 30 min): 10
- Tonic convulsion - presence, Total (3 mg/kg i.p., 30 min): 8
- Wild running - presence, Total (3 mg/kg i.p., 30 min): 10
- latency to tonic convulsions (significance in words) (10 mg/kg i.p. vs vehicle): significantly increased
- Clonic convulsion - latency, Change from vehicle (10 mg/kg i.p., 30 min): +44%
- Clonic convulsion - presence, Change from vehicle (10 mg/kg i.p., 30 min): −13%
- Tonic convulsion - latency, Change from vehicle (10 mg/kg i.p., 30 min): +400%*
- Tonic convulsion - presence, Change from vehicle (10 mg/kg i.p., 30 min): −57%
- Wild running - latency, Change from vehicle (10 mg/kg i.p., 30 min): +27%
- Wild running - presence, Change from vehicle (10 mg/kg i.p., 30 min): −11%
- Clonic convulsion - presence, Total (10 mg/kg i.p., 30 min): 7
- Tonic convulsion - presence, Total (10 mg/kg i.p., 30 min): 3
- Wild running - presence, Total (10 mg/kg i.p., 30 min): 8
- latency to clonic convulsions (significance in words) (30 mg/kg i.p. vs vehicle): significantly increased
- latency to tonic convulsions (significance in words) (30 mg/kg i.p. vs vehicle): significantly increased
- latency to wild running (significance in words) (30 mg/kg i.p. vs vehicle): significantly increased
- Clonic convulsion - latency, Change from vehicle (30 mg/kg i.p., 15 min): +574%**
- Tonic convulsion - latency, Change from vehicle (30 mg/kg i.p., 15 min): +400%**
- Wild running - latency, Change from vehicle (30 mg/kg i.p., 15 min): +1076%***
- Clonic convulsion - presence, Total (30 mg/kg i.p., 15 min): 2
- Tonic convulsion - presence, Total (30 mg/kg i.p., 15 min): 0
- Wild running - presence, Total (30 mg/kg i.p., 15 min): 2
- latency to clonic convulsions (significance in words) (3 and 10 mg/kg i.p. vs vehicle): no significant differences
- latency to wild running (significance in words) (3 and 10 mg/kg i.p. vs vehicle): no significant differences
- number of mice displaying clonic convulsions (significance in words) (3 or 10 mg/kg i.p.): no significant differences
- number of mice displaying tonic convulsions (significance in words) (3 or 10 mg/kg i.p.): no significant differences
- number of mice displaying wild running (significance in words) (3 or 10 mg/kg i.p.): no significant differences

Structure (SMILES): CCCc1cc(O)c(-c2c(C)c(Cl)cn3ccnc23)c(O)c1 [Compound 4, 2-(6-Chloro-7-methylimidazo[1,2-a]pyridin-8-yl)-5-propylbenzene-1,3-diol]
- Clonic convulsion - latency, Change from vehicle (3 mg/kg i.p., 30 min): −5%
- Clonic convulsion - presence, % (3 mg/kg i.p., 30 min): 100%
- Clonic convulsion - presence, Change from vehicle (3 mg/kg i.p., 30 min): 0%
- Tonic convulsion - latency, Change from vehicle (3 mg/kg i.p., 30 min): +6%
- Tonic convulsion - presence, % (3 mg/kg i.p., 30 min): 90%
- Tonic convulsion - presence, Change from vehicle (3 mg/kg i.p., 30 min): −10%
- Wild running - latency, Change from vehicle (3 mg/kg i.p., 30 min): −2%
- Wild running - presence, % (3 mg/kg i.p., 30 min): 100%
- Wild running - presence, Change from vehicle (3 mg/kg i.p., 30 min): 0%
- Clonic convulsion - latency, Change from vehicle (10 mg/kg i.p., 30 min): +5%
- Clonic convulsion - presence, % (10 mg/kg i.p., 30 min): 90%
- Clonic convulsion - presence, Change from vehicle (10 mg/kg i.p., 30 min): −10%
- Tonic convulsion - latency, Change from vehicle (10 mg/kg i.p., 30 min): +24%
- Tonic convulsion - presence, % (10 mg/kg i.p., 30 min): 70%
- Tonic convulsion - presence, Change from vehicle (10 mg/kg i.p., 30 min): −30%
- Wild running - latency, Change from vehicle (10 mg/kg i.p., 30 min): +4%
- Wild running - presence, % (10 mg/kg i.p., 30 min): 100%
- Wild running - presence, Change from vehicle (10 mg/kg i.p., 30 min): 0%
- latency to clonic convulsions (significance in words) (30 mg/kg i.p. vs vehicle): significantly increased
- latency to tonic convulsions (significance in words) (30 mg/kg i.p. vs vehicle): significantly increased
- latency to wild running (significance in words) (30 mg/kg i.p. vs vehicle): significantly increased
- Clonic convulsion - latency, Change from vehicle (30 mg/kg i.p., 15 min): +368%**
- Clonic convulsion - presence, % (30 mg/kg i.p., 15 min): 70%
- Clonic convulsion - presence, Change from vehicle (30 mg/kg i.p., 15 min): −30%
- Tonic convulsion - latency, Change from vehicle (30 mg/kg i.p., 15 min): +426%***
- Tonic convulsion - presence, % (30 mg/kg i.p., 15 min): 10%
- Wild running - latency, Change from vehicle (30 mg/kg i.p., 15 min): +608%**
- Wild running - presence, % (30 mg/kg i.p., 15 min): 70%
- Wild running - presence, Change from vehicle (30 mg/kg i.p., 15 min): −30%
- latency to clonic convulsions (significance in words) (60 mg/kg i.p. vs vehicle): significantly increased
- latency to tonic convulsions (significance in words) (60 mg/kg i.p. vs vehicle): significantly increased
- latency to wild running (significance in words) (60 mg/kg i.p. vs vehicle): significantly increased
- Clonic convulsion - latency, Change from vehicle (60 mg/kg i.p., 30 min, n = 9): +614%***
- Clonic convulsion - presence, % (60 mg/kg i.p., 30 min, n = 9): 11%
- Tonic convulsion - latency, Change from vehicle (60 mg/kg i.p., 30 min, n = 9): +426%***
- Tonic convulsion - presence, % (60 mg/kg i.p., 30 min, n = 9): 0%
- Wild running - latency, Change from vehicle (60 mg/kg i.p., 30 min, n = 9): +1150%***
- Wild running - presence, % (60 mg/kg i.p., 30 min, n = 9): 22%
- number of mice displaying clonic convulsions (significance in words) (3, 10 or 30 mg/kg i.p.): no significant differences
- number of mice displaying wild running (significance in words) (3, 10 or 30 mg/kg i.p.): no significant differences
- latency to clonic convulsions (significance in words) (3 and 10 mg/kg i.p. vs vehicle): no significant differences
- latency to wild running (significance in words) (3 and 10 mg/kg i.p. vs vehicle): no significant differences
- number of mice displaying tonic convulsions (significance in words) (3 or 10 mg/kg i.p.): no significant differences
- latency to tonic convulsions (significance in words) (3 or 10 mg/kg i.p. vs vehicle): no significant differences
